# Measurements reported in US20100160391A1, “Substituted Aminopyridines as Fluorescent Reporters for Amide Hydrolases” (priority 2006, published 2010).
# Marks after values point to notes of the source that are not given here.
# Columns and labels:
# [1] = Molar extinction coefficient of fluorescent reporters; format: physicochemical; settings: H2O containing 1% ethanol, 290 nm, 30° C., 10-50 μM
# Experimental: Molar extinction coefficient. According to Beer's law, Aλ=ε*C*L, where Aλ is the absorbance at wavelength (λ nm); ε is called the molar extinction coefficient; L is the width of the sample cuvette; and C is the concentration of the solute. In this example, a series of concentrations falling between 10 and 50 μM (final concentration) for each fluorescent reporter was used for determination of the molar extinction coefficient. Assays were performed in a quartz cuvette (1 cm optical passage). 10 μl of a stock solution of a reporter in ethanol (1, 2, 3, 4, or 5 mM) was added to 990 μl H2O. The resulting mixture was degassed by sonication with ultrasonic cleaner Model 750 (VWR International; Wester, Pa.) for 10 seconds at a power level of 9. Measurements were performed with a Spectra Max M2 spectrophotometer (Molecular Devices; Sunnyvale, Calif.) at a wavelength of 290 nm. A slope (or extinction coefficient) was obtained by using an average absorbance of triplicate samples.
# [2] = Fluorescence quantum yield; format: physicochemical; settings: 10 μM, 1% ethanol in water, excitation 290 nm, standard 3-aminopyridine; SD under ±5%
# Experimental: Quantum yield. The fluorescence quantum yield, φf, was calculated according to the following equation:
# ØF=Østd*(I/Istd)*(ODstd/OD)*(n/nstd)^2,
# wherein ØF is the quantum yield of the tested fluorescent reporter; Østd is the fluorescence quantum yield of the standard; I and Istd are the integrated emission intensities of the sample and the standard, respectively; OD and ODstd are the absorbance of the sample and standard, respectively, at the desired wavelength λex; and n and nstd are the indexes of refraction of the sample and standard solutions, respectively (Horspool and Song (Eds.), CRC Handbook of Organic Photochemistry I, pp 234-235, CRC Press, Boca Raton, Fla., 1995).
# In this example, 3-aminopyridine in water at the maximal excitation wavelength of 290 nm was used as a standard (Østd=0.32, εmax=2800 M^−1 cm^−1) (see, e.g., Weisstuch et al., J. Phys. Chem., 72:1982-1987 (1968)). In order to minimize inner filter effects, the optical densities of samples at the excitation wavelength (λ=290 nm) were kept in the range of 0.095-0.13 (less than 0.150-0.165). The final concentration of each tested sample in a quartz cuvette was 10 μM with 1% ethanol in water, same as that for the standard. The integrated area of fluorescent intensity for the standard or the samples was based on the area between 360 and 500 nm. The difference of the index of refraction between the standard and the sample was neglected because (1) all measurements were performed in the same quartz cuvette and spectrofluorimeter; (2) the final concentrations of the sample and the standard were the same; and (3) the structures of the sample and standard were very similar, i.e., only one pyridine ring. The quantum yields presented in Table 1 were based on calculation of the average of OD and integrated fluorescent intensities of triplicates. The standard deviation for each quantum yield was less than ±5%.
# [3] = Maximal excitation and emission wavelengths; format: physicochemical; settings: 50 μM in 0.1 M phosphate buffer, 30° C.; SD ±2 nm
# Experimental: Maximal excitation and emission wavelengths. A stock solution in ethanol of each compound (10 μl, 5 mM) was added to 990 μl of sodium phosphate buffer (0.1 M, pH 8.0, final substrate concentration 50 μM) in a 1-cm quartz cuvette. The quartz cuvette was scanned from 200 to 500 nm for absorption spectra with a Spectra Max M2 spectrophotometer. Maximal excitation and emission wavelengths were obtained from scanning from 250 to 600 nm and 360 to 600 nm by a 2 nm interval at 30° C., respectively.
# [4] = target: T1, L-Leucine aminopeptidase from porcine kidney microsomes (Sus scrofa, UniProt P15145); test: Sensitivity of L-Leucine aminopeptidase toward colorimetric and fluorescent substrates; format: biochemical; settings: for base line, Average: 0 min; for base line, Average / signal, Average: 25 μM; for signal, Average: 10 min; for Protein, lowest detection limit of L-Leucine aminopeptidase (signal at 10 min ≥ 3 times base line): substrate 25 μM
# T1 construct: purchased Sigma-Aldrich L5006; host or cells: porcine kidney microsomes
# T1 sequence (P15145 1-963): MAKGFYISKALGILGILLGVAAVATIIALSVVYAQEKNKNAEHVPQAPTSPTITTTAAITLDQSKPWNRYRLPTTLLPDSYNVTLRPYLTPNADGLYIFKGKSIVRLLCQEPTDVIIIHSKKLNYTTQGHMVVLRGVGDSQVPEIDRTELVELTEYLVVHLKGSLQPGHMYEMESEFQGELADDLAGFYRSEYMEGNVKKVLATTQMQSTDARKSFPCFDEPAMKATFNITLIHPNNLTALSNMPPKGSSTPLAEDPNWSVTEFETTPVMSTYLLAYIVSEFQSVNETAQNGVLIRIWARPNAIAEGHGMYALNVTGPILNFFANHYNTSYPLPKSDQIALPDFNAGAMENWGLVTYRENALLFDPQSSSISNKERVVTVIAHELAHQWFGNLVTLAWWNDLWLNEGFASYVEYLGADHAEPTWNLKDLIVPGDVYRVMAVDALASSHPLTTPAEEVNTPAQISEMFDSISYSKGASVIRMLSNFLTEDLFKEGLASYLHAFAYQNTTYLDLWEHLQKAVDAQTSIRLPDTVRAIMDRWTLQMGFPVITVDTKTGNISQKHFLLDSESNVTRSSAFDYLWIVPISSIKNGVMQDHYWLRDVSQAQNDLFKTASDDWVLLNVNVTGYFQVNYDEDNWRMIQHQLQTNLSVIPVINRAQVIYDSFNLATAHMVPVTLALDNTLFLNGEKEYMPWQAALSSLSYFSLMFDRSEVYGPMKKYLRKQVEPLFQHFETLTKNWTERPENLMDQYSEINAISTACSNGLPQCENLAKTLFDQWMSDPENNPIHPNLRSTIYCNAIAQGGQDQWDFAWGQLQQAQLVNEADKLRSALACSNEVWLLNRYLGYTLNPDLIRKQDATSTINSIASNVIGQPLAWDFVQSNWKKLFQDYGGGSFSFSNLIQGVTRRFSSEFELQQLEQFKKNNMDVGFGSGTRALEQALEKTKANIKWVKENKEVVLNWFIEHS
# Experimental: Comparison of the sensitivities of L-Leucine aminopeptidase toward colorimetric and fluorescent substrates. In general, all assays were performed in 96-well styrene flat-bottom microtiter plates using a Spectra Max M2 spectrophotometer at 37° C. for 10 min. The total volume of each well was 201 μl containing 0.1 M sodium phosphate buffer (190 μl, pH 7.2), stock or diluted protein solution (10 μl), and 5 mM of the substrate solution (1 μl) in either ethanol for substrates (18) and (19). The lowest detection limit of microsomal L-Leucine aminopeptidase by substrates was determined by the fact that the signal at 10 min was equal to or over 3 times the basal line at 0 min. Colorimetric substrates assays (e.g., (20)) were performed in clear 96-well microtititer plates using an absorbance wavelength of 382 nm. The fluorescent substrates containing 5-amino-2-methoxypyridine (e.g., (19)) were measured at an excitation wavelength (302 nm), emission wavelength (396 nm), and auto cutoff wavelength (325 nm). Similarly, the fluorescent substrates containing 5-amino-2-methoxy-6-methylpyridine (e.g., (18)) were measured at an excitation wavelength (304 nm), emission wavelength (392 nm), and auto cutoff wavelength (325 nm).
# [5] = pH 7.2, 37° C., protein 1.97 (18), 0.018 (19) μg/well
# [6] = absorbance 382 nm, protein 1.97 μg/well
compound,measurement,setting,value
"Cc1ccncc1N [Compound 2, 3-amino-4-methylpyridine]","εmax, molar extinction coefficient",[1],2580 M⁻¹ cm⁻¹
same,"ØF, fluorescence quantum yield",[2],0.53
same,"Em, maximal emission wavelength",[3],376 nm
same,"Ex, maximal excitation wavelength",[3],280 nm
"Cc1ccc(N)cn1 [Compound 3, 3-amino-6-methylpyridine]","εmax, molar extinction coefficient",[1],2700 M⁻¹ cm⁻¹
same,"ØF, fluorescence quantum yield",[2],0.62
same,"Em, maximal emission wavelength",[3],384 nm
same,"Ex, maximal excitation wavelength",[3],290 nm
"Nc1cccnc1F [Compound 4, 3-amino-2-fluoropyridine]","εmax, molar extinction coefficient",[1],3670 M⁻¹ cm⁻¹
same,"ØF, fluorescence quantum yield",[2],0.04
same,"Em, maximal emission wavelength",[3],374 nm
same,"Ex, maximal excitation wavelength",[3],282 nm
"Nc1ccc(F)nc1 [Compound 5, 5-amino-2-fluoropyridine]","εmax, molar extinction coefficient",[1],2360 M⁻¹ cm⁻¹
same,"ØF, fluorescence quantum yield",[2],0.72
same,"Em, maximal emission wavelength",[3],384 nm
same,"Ex, maximal excitation wavelength",[3],292 nm
"COc1ncccc1N [Compound 7, 3-amino-2-methoxypyridine]","εmax, molar extinction coefficient",[1],4670 M⁻¹ cm⁻¹
same,"ØF, fluorescence quantum yield",[2],0.27
same,"Em, maximal emission wavelength",[3],378 nm
same,"Ex, maximal excitation wavelength",[3],284 nm
"COc1ccc(N)c(C)n1 [Compound 8, 3-amino-6-methoxy-2-picoline]","εmax, molar extinction coefficient",[1],4130 M⁻¹ cm⁻¹
same,"ØF, fluorescence quantum yield",[2],0.97
same,"Em, maximal emission wavelength",[3],392 nm
same,"Ex, maximal excitation wavelength",[3],304 nm
"COc1ccc(NC(C)=O)c(C)n1 [Compound 11, N-(6-methoxy-2-methylpyridin-3-yl) acetamide]",melting point,,130.1 to 130.4 °C
"COc1ccc(NC(=O)[C@@H](N)CC(C)C)c(C)n1 [Compound 18, N-(6-methoxy-2-methylpyridin-3-yl), (S)-2-amino-4-methylpentanamide]","base line, Average",[4]; [5],164 RFU/sec
same,"signal, Average",[4]; [5],494* RFU/sec
same,"Protein, lowest detection limit of L-Leucine aminopeptidase (signal at 10 min ≥ 3 times base line)","[4]; pH 7.2, 37° C.",1.97 μg/200 μL
"COc1ccc(NC(=O)[C@@H](N)CC(C)C)cn1 [Compound 19, N-(6-methoxypyridin-3-yl), (S)-2-amino-4-methylpentanamide]","base line, Average",[4]; [5],67 RFU/sec
same,"signal, Average",[4]; [5],228* RFU/sec
same,times more sensitive than substrate (20),[4]; Table 5,at least 100 times
same,"Protein, lowest detection limit of L-Leucine aminopeptidase (signal at 10 min ≥ 3 times base line)","[4]; pH 7.2, 37° C.",0.018 μg/200 μL
"CC(C)C[C@H](N)C(=O)Nc1ccc([N+](=O)[O-])cc1 [Compound 20, L-Leucine-p-nitroanilide]","base line, Average",[4]; [6],0.08 OD
same,"signal, Average",[4]; [6],0.24* OD
same,"Protein, lowest detection limit of L-Leucine aminopeptidase (signal at 10 min ≥ 3 times base line)","[4]; pH 7.2, 37° C.",1.97 μg/200 μL
